According to PMC4788153, “Impact of Cytochrome P450 2D6 Function on the Chiral Blood Plasma Pharmacokinetics of 3,4-Methylenedioxymethamphetamine (MDMA) and Its Phase I and II Metabolites in Humans” (PLoS ONE, 2016):
Where a name gives a salt, the structure may show the parent alone. Read-outs that look alike come from different tables or passages of the source.

Experiments:
[1] = Chiral plasma pharmacokinetics of bupropion and hydroxybupropion; details: for half-life: both, human, plasma, oral; for effect of MDMA co-administration on plasma concentrations: bupropion+MDMA vs bupropion+placebo
Procedure: Washout periods between test sessions were at least 10 days. […] Blood samples were collected -2, 0, 0.33, 0.67, 1, 1.5, 2, 2.5, 3, 4, 6, 8, and 24 h after MDMA or placebo administration. All of the subjects were genotyped [47] and phenotyped [48] for CYP2D6 activity. The study included 13 EMs, three IMs, and no PMs (genotyping and phenotyping congruent) [40]. Subjects were also genotyped for CYP2B6 (reduced-activity single nucleotid polymorphism rs3745274 (516G>T, CYP2B6*6 or CYP2B6*9) using commercial TaqMan assay (LuBio Science, Lucerne, Switzerland). There were 9 subjects with the G/G, 6 subjects with the G/T and one subject with the T/T genotype. Subjects with G/T or T/T genotype were considered to have a reduced CYP2B6 function.
The method was fully validated according to national and international guidelines [49, 50].
The time interval after dosing until detection of the first positive sample was designated as the time of first detection (tonset). […] Mann-Whitney tests (95% confidence interval) were used to test for between-subject differences between CYP2D6 EMs (n = 13) and CYP2D6 IMs (n = 3). The statistical analyses were performed using Prism 6.00 software (GraphPad Software, La Jolla, CA, USA).
An aliquot of 550 µl was transferred into an autosampler vial, 50 µl of formic acid were added and the mixture was evaporated to dryness under a gentle stream of nitrogen at 40 °C. The residue was dissolved in 100 µl of mobile phase 20 mM ammonium acetate buffer, pH 6.6 (A) and methanol (B) (1:1, v/v). 10 µl of this solution were injected into the LC-MS/MS system.
The analysis was performed using a Thermo Fischer Ultimate 3000 UHPLC system (Thermo Fisher, San Jose, California, USA) coupled to an ABSciex 5500 QTtrap linear ion trap quadrupole mass spectrometer (ABSciex, Darmstadt/Germany) with positive electrospray ionization (ESI) in multiple reaction monitoring mode (MRM).
The LC settings were as follows: Chiral AGP column (100 x 4.0 mm, 5 µm), gradient elution with 20 mM ammonium formate buffer in water (pH 6.6, A) and methanol (B) . The flow rate was 0.8 ml/min with the following gradient: start conditions 10% B for 0.5 min, 0.5-6 min to 30% B, 6-7 min to 50% B, 7-9 min to 80% B hold at 80% B for 1 min, at 10 min reequilibrating to 10% B for 2 min. Injection volume was 10 µl.
The Turbo V ion source equipped with a stainless steel electrode (100 µm internal diameter) was operated in positive ESI mode with the following MS conditions: gas 1, nitrogen (50 psi); gas 2, nitrogen (60 psi); ion spray voltage, 5500; ion-source temperature, 550 °C; curtain gas, nitrogen (30 psi), collision gas, high. The MS was operated in the MRM mode with a scan time of 50 ms using 3 transitions for each analyte except for the ISs where 1 MRM transition was used. […] The MS was controlled by analyst 1.6.2 software.

[2] = Chiral plasma pharmacokinetics of MDMA and its phase I and II metabolites after controlled MDMA administration; assay type: in vivo, human; details: for AUC(0-t) / Cmax / half-life / Tmax: human, plasma; for change in AUC24 after bupropion pretreatment / change in Cmax after bupropion pretreatment: bupropion+MDMA vs placebo+MDMA, unsigned = increase; for change in AUC24 after bupropion pretreatment / change in Cmax after bupropion pretreatment / prolongation of t1/2 after bupropion pretreatment / reduction of Cl/F after bupropion pretreatment: CYP2D6 EMs
Procedure: Blood plasma samples were analyzed non-stereoselectively as reported previously and reanalyzed for the present report using liquid chromatography-mass spectrometry/mass spectrometry after chiral derivatization with Marfey’s reagent as described previously. The method was fully validated, including selectivity, recovery, matrix effects, bias and imprecision, stability, and limit of quantification.

[3] = both sexes, oral, 125 mg, placebo+MDMA (125 mg), CYP2D6 EM, n=13, plasma, read-out: AUC0-24h S
[4] = both sexes, oral, 125 mg, placebo+MDMA (125 mg), CYP2D6 EM, n=13, plasma, read-out: Cmax S
[5] = both sexes, oral, 125 mg, placebo+MDMA (125 mg), CYP2D6 EM, n=13, plasma, read-out: t1/2 S (converted)
[6] = both sexes, oral, 125 mg, placebo+MDMA (125 mg), CYP2D6 EM, n=13, plasma, read-out: tmax S
[7] = both sexes, oral, bupropion+MDMA (125 mg), CYP2D6 EM (EM/Bup), n=13, plasma, read-out: AUC0-24h S
[8] = both sexes, oral, bupropion+MDMA (125 mg), CYP2D6 EM (EM/Bup), n=13, plasma, read-out: Cmax S
[9] = both sexes, oral, bupropion+MDMA (125 mg), CYP2D6 EM (EM/Bup), n=13, plasma, read-out: t1/2 S (converted)
[10] = both sexes, oral, bupropion+MDMA (125 mg), CYP2D6 EM (EM/Bup), n=13, plasma, read-out: tmax S
[11] = bupropion+MDMA (125 mg), CYP2D6 EM (EM/Bup), n=13, plasma
[12] = im, placebo+MDMA (125 mg), CYP2D6 IM, n=3, plasma, read-out: AUC0-24h S
[13] = im, placebo+MDMA (125 mg), CYP2D6 IM, n=3, plasma, read-out: Cmax S
[14] = im, placebo+MDMA (125 mg), CYP2D6 IM, n=3, plasma, read-out: t1/2 S (converted)
[15] = im, placebo+MDMA (125 mg), CYP2D6 IM, n=3, plasma, read-out: tmax S
[16] = placebo+MDMA (125 mg), CYP2D6 EM, n=13, plasma
[17] = placebo+MDMA (125 mg), CYP2D6 IM, n=3, plasma
[18] = bupropion vs placebo pretreatment
[19] = both sexes, oral, 125 mg, placebo+MDMA (125 mg), CYP2D6 EM, n=13, plasma, read-out: AUC0-24h R
[20] = both sexes, oral, 125 mg, placebo+MDMA (125 mg), CYP2D6 EM, n=13, plasma, read-out: tmax R
[21] = both sexes, oral, bupropion+MDMA (125 mg), CYP2D6 EM (EM/Bup), n=13, plasma, read-out: AUC0-24h R
[22] = both sexes, oral, bupropion+MDMA (125 mg), CYP2D6 EM (EM/Bup), n=13, plasma, read-out: Cmax R
[23] = both sexes, oral, bupropion+MDMA (125 mg), CYP2D6 EM (EM/Bup), n=13, plasma, read-out: t1/2 R (converted)
[24] = both sexes, oral, bupropion+MDMA (125 mg), CYP2D6 EM (EM/Bup), n=13, plasma, read-out: tmax R
[25] = both sexes, oral, placebo+MDMA (125 mg), CYP2D6 EM, n=13, plasma, read-out: Cmax R
[26] = both sexes, oral, placebo+MDMA (125 mg), CYP2D6 EM, n=13, plasma, read-out: t1/2 R (converted)
[27] = placebo-pretreated EMs, same-configuration MDMA enantiomer

| Structure (SMILES) | AUC(0-t) [2, 3] | Cmax [2, 4] | half-life [2, 5] | Tmax [2, 6] | AUC(0-t) [2, 7] | Cmax [2, 8] | half-life [2, 9] | Tmax [2, 10] | AUCtotal S [2, 11] | change in AUC24 after bupropion pretreatment [2] | change in Cmax after bupropion pretreatment [2] | AUC(0-t) [2, 12] | Cmax [2, 13] | half-life [2, 14] | Tmax [2, 15] | AUCtotal S [2, 16] | AUCtotal S [2, 17] | AUC(0-t) [2, 19] | Tmax [2, 20] | AUC(0-t) [2, 21] | further results |
| --- | --- | --- | --- | --- | --- | --- | --- | --- | --- | --- | --- | --- | --- | --- | --- | --- | --- | --- | --- | --- | --- |
| C[C@H](NC(C)(C)C)C(=O)c1cccc(Cl)c1 [S-bupropion, bupropion] |  |  |  |  |  |  |  |  |  |  |  |  |  |  |  |  |  |  |  |  | half-life ([1]; 300 mg, t1/2 S/ S,S, bupropion+placebo (P), CYP2B6 genotype normal): 7.3 h; half-life ([1]; 300 mg, t1/2 S/ S,S, bupropion+placebo (P), CYP2B6 genotype reduced): 7.8 h; half-life ([1]; t1/2 S/ S,S, bupropion+MDMA (M), CYP2B6 genotype normal): 7.5 h; half-life ([1]; t1/2 S/ S,S, bupropion+MDMA (M), CYP2B6 genotype reduced): 6.8 h; effect of MDMA co-administration on plasma concentrations [1]: did not significantly alter |
| C[C@@H](NC(C)(C)C)C(=O)c1cccc(Cl)c1 [R-bupropion, bupropion] |  |  |  |  |  |  |  |  |  |  |  |  |  |  |  |  |  |  |  |  | half-life ([1]; 300 mg, t1/2 R/ R,R, bupropion+placebo (P), CYP2B6 genotype normal): 8.4 h; half-life ([1]; 300 mg, t1/2 R/ R,R, bupropion+placebo (P), CYP2B6 genotype reduced): 8.9 h; half-life ([1]; t1/2 R/ R,R, bupropion+MDMA (M), CYP2B6 genotype normal): 8.5 h; half-life ([1]; t1/2 R/ R,R, bupropion+MDMA (M), CYP2B6 genotype reduced): 7.5 h; effect of MDMA co-administration on plasma concentrations [1]: did not significantly alter |
| CC(N)Cc1ccc2c(c1)OCO2 (centres unmarked) [S-MDA, 3,4-methylenedioxyamphetamine] | 0.61 µM·h | 41 nM | 9.2 h | 4.6 h | 0.49 µM·h | 31 nM | 11.1 h | 5.2 h | 0.69 (0.17) μmol/l*h-1 | -20% | -24% | 0.65 µM·h | 42 nM | 10.6 h | 4.4 h | 0.76 (0.27) μmol/l*h-1 | 0.87 (0.31) μmol/l*h-1 |  |  |  |  |
| CNC(C)Cc1ccc(OC2OC(C(=O)O)C(O)C(O)C2O)c(OC)c1 (centres unmarked) [HMMA glucuronide] |  |  |  |  |  |  |  |  |  |  |  |  |  |  |  |  |  |  |  |  | reduction of Cmax by bupropion ([2]; metabolite stereoisomers, bupropion pretreatment vs placebo (abstract)): approximately 40% |
| CC(N)Cc1ccc2c(c1)OCO2 (centres unmarked) [MDA, 3,4-methylenedioxyamphetamine] |  |  |  |  |  |  |  |  |  |  |  |  |  |  |  |  |  |  |  |  | change of R/S ratio for AUC24 after bupropion pretreatment [2, 18]: -17%; change of R/S ratio for Cmax after bupropion pretreatment [2, 18]: -19% |
| CN[C@H](C)Cc1ccc2c(c1)OCO2 [R-MDMA, 3,4-methylenedioxymethamphetamine] |  |  |  |  |  |  |  |  |  | 25% | 9% |  |  |  |  |  |  | 8.7 µM·h | 2.9 h | 10.9 µM·h | Cmax [2, 22]: 750 nM; half-life [2, 23]: 10.8 h; Tmax [2, 24]: 3.3 h; Cmax [2, 25]: 690 nM; half-life [2, 26]: 8.2 h; prolongation of t1/2 after bupropion pretreatment [2, 18]: 31%; reduction of Cl/F after bupropion pretreatment [2, 18]: -23%; AUCtotal R [2, 11]: 14.2 (3.7) μmol/l*h-1; CL/F R [2, 11]: 31.3 (8.2) l/h; AUCtotal R [2, 16]: 10.4 (3.6) μmol/l*h-1; CL/F R [2, 16]: 40.4 (14.2) l/h; AUCtotal R [2, 17]: 14.5 (4.3) μmol/l*h-1; CL/F R [2, 17]: 29.8 (7.4) l/h |
| CN[C@@H](C)Cc1ccc2c(c1)OCO2 [S-MDMA, 3,4-methylenedioxymethamphetamine] | 4.9 µM·h | 560 nM | 4.5 h | 2.1 h | 6.8 µM·h | 650 nM | 5.7 h | 2.5 h | 7.2 (1.7) μmol/l*h-1 | 38% | 16% | 6.8 µM·h | 720 nM | 5.1 h | 2.3 h | 5.1 (1.5) μmol/l*h-1 | 7.1 (2.0) μmol/l*h-1 |  |  |  | prolongation of t1/2 after bupropion pretreatment [2, 18]: 26%; reduction of Cl/F after bupropion pretreatment [2, 18]: -31%; CL/F S [2, 11]: 50.5 (13.5) l/h; CL/F S [2, 16]: 72.8 (26.2) l/h; CL/F S [2, 17]: 50.4 (12.6) l/h |
| CN[C@H](C)Cc1ccc(OS(=O)(=O)O)c(OC)c1 [R-HMMA sulfate] |  |  |  |  |  |  |  |  |  | -62% | -62% |  |  |  |  |  |  | 5.5 µM·h | 2 h | 2.1 µM·h | metabolite/MDMA ratio, mean constant (after approximately 2 h) ([2]; IMs): 0.13; metabolite/MDMA ratio, mean initial (highest, first hour) ([2]; IMs): 1.9; Cmax [2, 22]: 140 nM; half-life [2, 23]: 34.4 h; Tmax [2, 24]: 4.2 h; Cmax [2, 25]: 370 nM; half-life [2, 26]: 17.5 h; AUCtotal R [2, 11]: 7.1 (4.6) μmol/l*h-1; tonset (time of first detection), mean ([2]; bupropion-pretreated CYP2D6 EMs): 0.53 h; metabolite/MDMA ratio, mean constant (after approximately 2 h) ([2]; bupropion-pretreated EMs): 0.13; metabolite/MDMA ratio, mean initial (highest, first hour) ([2]; bupropion-pretreated EMs): 0.31; AUCtotal R [2, 16]: 9.6 (2.7) μmol/l*h-1; AUCtotal R [2, 17]: 3.4 (1.3) μmol/l*h-1; tonset (time of first detection), mean ([2]; placebo-pretreated CYP2D6 EMs): 0.33 h; metabolite/MDMA ratio, mean constant (after approximately 2 h) ([2]; placebo-pretreated EMs): 0.54; metabolite/MDMA ratio, mean initial (highest, first hour) [2, 27]: 15.8 |
| CC(N)Cc1ccc2c(c1)OCO2 (centres unmarked) [R-MDA, 3,4-methylenedioxyamphetamine] |  |  |  |  |  |  |  |  |  | -26% | -27% |  |  |  |  |  |  | 0.26 µM·h | 12.5 h | 0.19 µM·h | Cmax [2, 22]: 10 nM; Tmax [2, 24]: 14.9 h; Cmax [2, 25]: 14 nM |
| CN[C@@H](C)Cc1ccc(OS(=O)(=O)O)c(O)c1 [S-DHMA 4-sulfate] | 0.64 µM·h | 55 nM | 8.1 h | 1.7 h | 0.32 µM·h | 21 nM | 14.3 h | 2.4 h | 0.48 (0.19) μmol/l*h-1 | -50% | -61% | 0.4 µM·h | 29 nM | 12.1 h | 2.1 h | 0.80 (0.37) μmol/l*h-1 | 0.59 (0.30) μmol/l*h-1 |  |  |  | metabolite/MDMA ratio, mean constant (after approximately 2 h) ([2]; IMs): 0.05; metabolite/MDMA ratio, mean initial (highest, first hour) ([2]; IMs): 0.91; metabolite/MDMA ratio, mean constant (after approximately 2 h) ([2]; bupropion-pretreated EMs): 0.04; metabolite/MDMA ratio, mean initial (highest, first hour) ([2]; bupropion-pretreated EMs): 0.60; metabolite/MDMA ratio, mean constant (after approximately 2 h) ([2]; placebo-pretreated EMs): 0.11; metabolite/MDMA ratio, mean initial (highest, first hour) [2, 27]: 3.8 |
